For one compound, IC50 results are on record in patent US20200261534A1, “NEW TREATMENTS OF MULTIPLE MYELOMA” (priority 2017, published 2020).

Starred links: 1 amine or outer side, 2 acyl side, 3 side chain; linkers in the order of their positions; H or OH if unused. Positions of bridges follow the written chain, without caps; N, C: chain ends. Non-standard residues stand in square brackets, D forms with d. Residues, ends and D or L forms follow the SMILES beside them. ξ: configuration not given here. ξαMeNle(6-ylidene) = CC(CCCC=[*:3])(N[*:1])C(=O)[*:2]; X1 = CC(CCCCCCC=[*:3])(N[*:1])C(=O)[*:2]

Format in all cases: cell-based
In test [1] the test system is MM144, lymphoblast (myeloma). In words: MTT viability assay, MM144. The following applies: 24-72 h, Table 7, read-out: IC50 values in μM for S09. How it is done:
MM144, lymphoblast (myeloma), University of Salamanca
(§1) All cell lines were cultured in incubator at 37° C. in RPMI-1640 (Sigma R8758) medium with 10% of fetal bovine serum inactivated (FBS) and 2 mM glutamine (Sigma G7513). During the amplification step cells were centrifuged and transferred into the culturing medium. Cells were counted in a Neubauer chamber after labelling with Tripan-Blue.
(§2) Cells were seeded at a density of 10000 cells/well in 100 μl of medium in 96 well plates. After 24 h, the compounds to be tested were added to calculate the dose/response curve at the starting concentration of 100 μM with serial dilutions (1:1). Controls are the untreated cells. Each experiment was performed in triplicate.
(§3) Cells were incubated with the peptidomimetic compound (S09) at the indicated concentrations during 24-72 h in incubator under CO2 atmosphere at 37° C. Then, cell viability was measured by means of MTT (3-(4,5-dimethylthiazol-2-yl)-2,5-diphenyltetrazolium bromide) assay. Stock solution of MTT (475989 Calbiochem) was 5 mg/ml in PBS. […] Absorbance at 570 nm was finally measured. […]
(§4) Data analysis was performed calculating the percentage of cell viability normalized vs. the values of negative control, which was considered equal to 100%. The dose/response curve was fitted through the sigmoidal equation dose-response (variable slope) and the IC50 values were calculated as follow: […]
A general note: Tetrazolium assays rely on reduction of a dye to a coloured formazan, in cell work by metabolically active cells.

For test [2], the system named is BJ, fibroblast (normal skin). In words: MTT viability assay, BJ. The following applies: incubation 24-72 h, Table 3. How it is done:
BJ, fibroblast (normal skin), ATCC® CRL-2522™
Cell lines A549, MCF-7 and RAMOS were cultured in incubator under CO2 (6%) at 37° C. in DMEM high glucose (Dulbecco's Modified Eagle Solution, Gibco-BRL 31966-21) medium with 10% fetal bovine serum inactivated (FBS) (Gibco-BRL 10106-169). Cell lines HL-60 and MM.1S were cultured in incubator at 37° C. in RPMI-1640 (Sigma R8758) medium with 10% of fetal bovine serum inactivated (FBS) and 2 mM glutamine (Sigma G7513). Cell lines BJ were cultured in incubator under CO2 (6%) at 37° C. in Eagle's Minimum Essential Medium (Sigma, M-2279) with 10% fetal bovine serum inactivated (FBS) (Gibco-BRL 10106-169).
During the amplification step and the assays adherent cells were rinsed with DPBS (Dulbecco's Phosphate Buffered Saline, Sigma D1283) three times and afterward treated for 5 minutes with trypsin ([…]) (Gibco-BRL, 15400054) in solution of DPBS at 37° C., and, once detached, transferred in the culturing medium. […] Cells were counted in a Neubauer chamber after labelling with Tripan-Blue. […]
Cells were incubated with the compounds at the indicated concentrations during 24-72 h in incubator under CO2 atmosphere at 37° C. Then, cell viability was measured by means of MTT (3-(4,5-dimethylthiazol-2-yl)-2,5-diphenyltetrazolium bromide) assay. […] Absorbance at 570 nm was finally measured. […]

The subject of test [3] is OPM-2, lymphoblast (myeloma). In words: MTT viability assay, OPM-2. The following applies: OPM2, 24-72 h, Table 7, read-out: IC50 values in μM for S09. On the procedure: OPM-2, lymphoblast (myeloma), DSMZ No. ACC50
as §1, §2, §3, §4

In general, IC50 refers to the concentration at which inhibition is half-maximal.

With `CC[C@H](C)[C@H](NC(=O)[C@H](Cc1ccc(O)cc1)NC(=O)[C@H](C)NC(=O)C1(C)CCCC=CCCCCCCC(C)(NC(=O)[C@H](CCCCN)NC(=O)[C@@H]2CCCN2C(=O)[C@H](C)N)C(=O)N[C@@H](C(C)C)C(=O)N[C@@H]([C@@H](C)CC)C(=O)N[C@@H](CC(C)C)C(=O)N[C@@H](CCCCN)C(=O)N[C@@H](CCCCN)C(=O)N[C@@H](C)C(=O)N1)C(=O)N[C@@H](CC(C)C)C(=O)N[C@@H](CO)C(=O)O` (stereo partly drawn) [S09, APKXVILKKAXAYILS—OH] (H-APK[X1]VILKKA[ξαMeNle(6-ylidene)]AYILS-OH; staple 4-11; N-terminus assumed), the IC50 in test [1] was 6.8 µM; in test [2] it was 47 ± 0.2 µM; in test [3], 4.8 µM.
